Results published in patent US10626349B2, “Cleavable surfactants” (PROMEGA CORPORATION, priority 2007, dated 2020).

Legend:
[1] = Acid and thermal degradation of the surfactant; settings: for degradation after overnight incubation (in words): concentration not given; for degradation by acid (0.5% TFA) or by heat (boiling), in words: 3236: 0.1% solution in 0.5% TFA 30 minutes at 37° C. or 5 minutes of boiling without TFA; for acid-lability (in words): 0.5% TFA at 37° C. where stated (3237: 30 minutes), 3271 by TLC analysis; for thermolability (in words): 3266: 5 minutes at 95° C.
[2] = Solubility of the surfactant; settings: for solubility in aqueous solutions (in words) / solubility in aqueous solutions (concentration dissolved to): aqueous solution; for solubility (concentration dissolved to): in 50 mM ammonium bicarbonate; for solubilized in DMSO to: 100% DMSO
[3] = target: T1, Bacteriorhodopsin digested with chymotrypsin (Halobacterium salinarum, UniProt P02945); experiment: Bacteriorhodopsin/Chymotrypsin digest, HPLC peak area versus RapiGest control; type: biochemical; settings: 0.025% surfactant, BR heated (boiled) with surfactant 5 minutes at 95° C., chymotrypsin 10:1, 1 hour at 37° C.; ratio to RapiGest control
T1 sequence (P02945 14-261 limits assumed): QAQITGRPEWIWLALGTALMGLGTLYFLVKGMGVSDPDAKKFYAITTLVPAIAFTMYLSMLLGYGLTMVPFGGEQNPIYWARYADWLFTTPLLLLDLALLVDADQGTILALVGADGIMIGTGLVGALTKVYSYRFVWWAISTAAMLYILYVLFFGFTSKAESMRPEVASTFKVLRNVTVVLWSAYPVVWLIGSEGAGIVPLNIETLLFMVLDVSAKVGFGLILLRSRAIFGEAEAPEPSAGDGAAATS
Method: Bacteriorhodopsin (25 μs) was heated with 0.025% Rapigest™ surfactant or the indicated compound of the invention for 5 minutes at 95° C., then digested with chymotrypsin (Sigma) at a 10:1 ratio in 125 μL 50 mM Ammonium bicarbonate for 1 hour at 37° C. After one hour TFA was added to 0.5-2% and the mixtures were incubated at 37° C. or 65° C. for 20 or 30 minutes. Degraded surfactant was removed by centrifugation at 14,000×g for 5 minutes. An aliquot of 50-100 μL of digested protein was analyzed by HPLC as described above.
Compound 3211, 3212, 3224 and Rapigest™ surfactant control for FIG. 13C reactions: Bacteriorhodopsin (25 μs) was solubilized with 0.025% compound of interest for 1-2 minutes at room temperature, then digested with chymotrypsin (Sigma) at a 10:1 ratio in 125 μL 50 mM Ammonium bicarbonate for 1 hour at 37° C. After one hour TFA was added to 0.5-2% and the mixtures were incubated at 37° C. or 65° C. for 20 or 30 minutes. Degraded surfactant was removed by centrifugation at 14,000×g for 5 minutes. An aliquot of 50-100 μL of digested protein was analyzed by HPLC as described above.
(§1) For each compound numbered below in Example 12, the rate of enhanced digestion was determined from the ratio of the surfactant peak area (surfactant # Pk. Area) to the Rapigest™ surfactant peak area (RG Pk area). Peak area was determined as the sum of all peaks integrated from 8-22 minutes.

[4] = target: T2, Myoglobin from horse heart digested with trypsin (Equus caballus, UniProt P68082); experiment: Myoglobin/Trypsin digest, HPLC peak area versus RapiGest control; type: biochemical; settings: 0.01% surfactant, trypsin 50:1, 20 minutes at 37° C.; ratio to RapiGest control, >1 = more digestion
T2 construct: Myoglobin from horse heart; from tissue; host or cells: horse heart
Method: Myoglobin from horse heart (typically 25 μs) was digested with trypsin (Promega) at a 50:1 ratio in a volume of 125 μL (typical) of 50 mM Ammonium bicarbonate for 20 minutes at 37° C. with 0.01% RapiGest™ surfactant or 0.01% of the indicated compound of the invention (upper and lower chromatograms, respectively). TFA was added to 0.5-2% and the mixtures were incubated at 37° C. or 65° C. for 20 or 30 minutes. Degraded surfactant was removed by centrifugation at 14,000×g for 5 minutes. HPLC analysis was performed on a 25-50 μL reaction sample using an HP1050 LC system with an Agilent Sorbax SB-C18 column (3.0×100 mm, 3.5 micron) and a gradient of 0.1% TFA (97.5% initial) and Acetonitrile, 0.01% TFA (55% final condition followed by a 100% wash step) and a flow rate of 0.75 mL/min. Peptides were detected at 214 and 280 nm.
as §1

[5] = Hydrolytic stability in 50 mM ammonium bicarbonate (reverse-phase HPLC); type: physicochemical; design: key: >>: compound 100% stable over course of experiment
Method: Hydrolytic stability was measured by monitoring the change in retention time of the intact surfactant by reverse-phase HPLC. The ½-life is defined as the time required to reach 50% degradation.

[6] = surfactant conc. 0.025% in 50 mM ammonium bicarbonate
[7] = surfactant conc. 1% in 50 mM ammonium bicarbonate

T2 sequence (P68082 2-154 limits assumed): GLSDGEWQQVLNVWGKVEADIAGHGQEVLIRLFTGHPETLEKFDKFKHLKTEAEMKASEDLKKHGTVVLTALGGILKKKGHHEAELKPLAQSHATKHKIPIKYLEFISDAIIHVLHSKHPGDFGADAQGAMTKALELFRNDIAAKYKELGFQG

Row | surfactant Pk area/RG Pk area, Myoglobin/Trypsin digest [4] | solubility in aqueous solutions (concentration dissolved to) [2] | SMILES | surfactant Pk area/RG Pk area, Bacteriorhodopsin/Chymotrypsin digest [3] | also measured
1 | – | – | CCCCCCOc1ccc(COC(=O)NCCCS(=O)(=O)O)cc1 [Compound 3186] | 0.45 | time to degradation of 0.01% solution ([1]; 37° C. where stated): ≤ 30 min; solubility in aqueous solutions (in words) [2]: some solubility in aqueous solution
2 | 0.5 | not more than 0.2% | CCCCCCCCCCCC(C)(C)OC(=O)Oc1ccc(NCCCCS(=O)(=O)O)cc1 [Compound 3195] | – | degradation after overnight incubation (in words) [1]: No degradation was observed even after overnight incubation
3 | 0.65 | 0.5% | CCCCCCCCCCCC(C)(C)OC(=O)Oc1ccc(N(CCCCS(=O)(=O)[O-])CCCCS(=O)(=O)O)cc1.[Na+] [Compound 3196] | – | time to degradation of 0.01% solution ([1]; 37° C. where stated): 30 min; degradation of 0.1% solution (in words) [1]: overnight
4 | 0.37 | 0.5% | CCCCCCC(OC(=O)NCCCS(=O)(=O)O)c1ccc(C(F)(F)F)cc1 (stereo not shown) [Compound 3199] | – | degradation after overnight incubation (in words) [1]: No degradation was observed even after overnight incubation
5 | – | 0.5% | CCCCCC(OC(=O)SCCS(=O)(=O)O)c1ccccc1 (stereo not shown) [Compound 3207] | – | time to degradation of 0.01% solution ([1]; 37° C. where stated): ≤ 60 min
6 | 2.1 | 0.5% | CCCCCC/C=C/C(C)OC(=O)Oc1ccc(NCCCS(=O)(=O)[O-])cc1.[Na+] (stereo not shown) [Compound 3209] | – | degradation after overnight incubation (in words) [1]: No degradation was observed even after overnight incubation
7 | 0.3 | 0.5% | CCCCCCCC(C)(C)OC(=O)Oc1ccc(NCCCS(=O)(=O)[O-])cc1.[Na+] [Compound 3210] | – | degradation rate (grade in words) [1]: moderate
8 | 1.4 | – | CCCCCCCCCCC(OC(=O)NCCCS(=O)(=O)[O-])c1ccc(OC)cc1.[Na+] (stereo not shown) [Compound 3212] | – | time to degradation in 0.5% TFA ([1]; 0.5% TFA, 37° C. where stated, 0.1% solution for 3220 and 3266): 15 min; time to degradation by boiling without TFA ([1]; boiling without TFA): 5 min; solubility (concentration dissolved to) [2]: 1%; ½-life ([5]; surfactant conc. 0.0025% in 50 mM ammonium bicarbonate): 3.7 h; ½-life [5, 6]: 21 h; ½-life ([5]; surfactant conc. 0.10% in 50 mM ammonium bicarbonate): 38 h; ½-life [5, 7]: >>
9 | – | – | CCCCCCCCCCCc1ccc(C(OCCc2ccc(N(CCCCS(=O)(=O)[O-])CCCCS(=O)(=O)[O-])cc2)(c2ccccc2)c2ccc(OCCCCCCCCCC)cc2)cc1.[Na+].[Na+] (stereo not shown) [Compound 3216] | 0.7 | solubilized in DMSO to [2]: 10%; solubility in aqueous solutions (in words) [2]: Insoluble in aqueous solutions
10 | – | 1% | CCCCCCCCCCOc1ccc(C(OCCc2ccc(N(CCCCS(=O)(=O)[O-])CCCCS(=O)(=O)[O-])cc2)(c2ccccc2)c2ccc(OC)cc2)cc1.[Na+].[Na+] (stereo not shown) [Compound 3219] | – | –
11 | 0.9 | – | CCCCCCCCCCCCC(OC(=O)NCCCS(=O)(=O)O)c1cc(OC)c(OC)c(OC)c1 (stereo not shown) [Compound 3267] | – | degradation by acid (0.5% TFA) or by heat (boiling), in words [1]: Did not degrade in 0.5% TFA or by boiling; solubility (concentration dissolved to) [2]: 2%
12 | 1 | 1% | CCCCCCCCCCC(OC(=O)NCCCS(=O)(=O)O)c1cccs1 (stereo not shown) [Compound 3269] | – | ½-life ([5]; surfactant conc. 0.03% in 50 mM ammonium bicarbonate): 7 h; ½-life [5, 7]: 135 h
13 | 0.8 | 0.5% | CCCCCCCCCCC(OC(=O)NCCCS(=O)(=O)O)c1ccc(Br)o1 (stereo not shown) [Compound 3270] | – | ½-life [5, 6]: 6.5 h; ½-life [5, 7]: 40 h
14 | 0.9 | 1% | CCCCCCCCCCC(OC(=O)NCCCS(=O)(=O)O)c1ccoc1 (stereo not shown) [Compound 3271] | – | acid-lability (in words) [1]: Just partially acid-labile; thermolability (in words) [1]: thermostable; ½-life [5, 6]: >350 h; ½-life [5, 7]: >>
15 | 0.75 | 1% | CCCCCCCCCCC(OC(=O)NCCCS(=O)(=O)O)c1ccsc1 (stereo not shown) [Compound 3273] | – | acid-lability (in words) [1]: Just partially acid-labile; thermolability (in words) [1]: thermostable
16 | 1 | 1% | CCCCCCCCCCC(OC(=O)NCCCS(=O)(=O)O)c1ccc(Cl)o1 (stereo not shown) [Compound 3274] | – | degradation by acid (0.5% TFA) or by heat (boiling), in words [1]: Acid- and thermolabile; ½-life [5, 6]: ~6 h
17 | 0.2 | 1% | CCCCCCCCCCC(OC(=O)NCCCS(=O)(=O)O)c1ccc(C(F)(F)F)o1 (stereo not shown) [Compound 3275] | – | degradation by acid (0.5% TFA) or by heat (boiling), in words [1]: Fully acid- and thermostable at the tested conditions; ½-life [5, 6]: >300 h; ½-life [5, 7]: >>

Row | SMILES | surfactant Pk area/RG Pk area, Myoglobin/Trypsin digest [4] | solubility in aqueous solutions (concentration dissolved to) [2] | surfactant Pk area/RG Pk area, Bacteriorhodopsin/Chymotrypsin digest [3] | also measured
18 | CCCCCCCCCCCC(C)(C)OC(=O)SCCS(=O)(=O)O [Compound 3189] | 1.1 | 0.5% | 0.6 | degradation of 0.01% solution (in words) ([1]; 37° C. where stated): degraded only after overnight incubation
19 | CCCCCC(OC(=O)NCCCS(=O)(=O)O)c1ccccc1 (stereo not shown) [Compound 3190] | – | 0.5% | 0.34 | time to degradation of 0.01% solution ([1]; 37° C. where stated): 30 min; degradation of 0.1% solution (in words) [1]: overnight
20 | CCCCCCCCCCCC(C)(C)OC(=O)NCC(O)CS(=O)(=O)[O-].[Na+] (stereo not shown) [Compound 3192] | 1.3 | 0.5% | 1.1 | degradation of 0.01% solution (in words) ([1]; 37° C. where stated): degraded only after overnight incubation
21 | CCCCCC/C=C/C(C)OC(=O)NCCCS(=O)(=O)O (stereo not shown) [Compound 3201] | 0.3 | 0.5% | 0.4 | –
22 | CCCCCC/C=C/C(C)OC(=O)NCC(O)CS(=O)(=O)[O-].[Na+] (stereo not shown) [Compound 3203] | – | 0.5% | 0.4 | degradation of 0.1% solution (in words) [1]: degraded after overnight incubation
23 | CCCCCCCCCCOc1ccc(C(OCCN(CCCCS(=O)(=O)[O-])CCCCS(=O)(=O)[O-])(c2ccccc2)c2ccc(OCCCCCCCCCC)cc2)cc1.[Na+].[Na+] [Compound 3218] | 0.3 | – | 0.65 | solubilized in DMSO to [2]: 10%; solubility in aqueous solutions (in words) [2]: Insoluble in aqueous solutions
24 | CCCCCCCCCCCCOc1ccc(/C=N/CCCS(=O)(=O)O)cc1 [Compound 3221] | 0.13 | 0.5% | 0.5 | –
